Experimental data published in patent US7388006B2, “Non-steroidal progesting” (Bayer Schering Pharma AG, priority 2002, dated 2008).

How the values were obtained:
[1] = system: ovulation in adult female rats; experiment: In vivo test on progestogenic activity - ovulation inhibition (rat); conditions: for Ovulation inhibition, result in words / Ovulation inhibition, factor compared to R5020: rat; for Ovulation inhibition, factor compared to R5020: potency relative to R5020
Description: Before the treatment is started, two […] cycles of female rats (weight: 190 to 210 g) were monitored. Only animals having a regular 4 day-cycle are used for the subsequent test. Starting in the metoestrus, the test compound is administered for 4 days (day 1 to 4) and the cycle is controlled thereafter.
For subcutaneous application, the test compounds are dissolved in benzyl benzoate/castor oil (1+9 v/v) and the daily dose is administered in a volume of 1 ml/kg body weight.
For peroral application, the test compounds are suspended in a carrier liquid (85 mg Myrj^R in 100 ml 0.9% w/v NaCl solution) and the daily dose is administered in a volume of 2 ml/kg body weight.
On day 4, after the application of the test compound, those animals having estrus or metoestrus are ovariectomized under ether anesthesia on one side. Preparations of the tubes are prepared and they are investigated for ova by means of microscope. On day 5 all animals (intact and partly ovariectomized) are killed with carbon dioxide, the tubes are preserved and analyzed in the same way. It is then determined, as a percentage, in how many animals ovulation was inhibited. […] Accordingly, this compound is to be regarded as having strong, progestational activity.

rat mammary epithelium = experiment: MIB-5 immunohistochemistry, proliferation of the mammary epithelium; format: in vivo; conditions: FIG. 2
Description: In order to determine the effects of test progestins according to the present invention, in particular compound ((+)-1), in mammary gland differentiation and proliferation, premature female rats (Wistar Han, SPF) are ovariectomized at the age of 21 days, 4 to 6 days before treatment start. The animals are treated for 6 days with standard estrogen (estrone (E1), 70 μg/kg) and the test progestin ((+)-1) (application volume: 0.1 ml/50 g body weight; vehicle: benzylbenzoate/castor oil (1+4 v/v); subcutaneous). Control groups are e.g.: vehicle, estrone without progestin, estradiol together with a known progestin, e.g. R5020 (promegestone). After the 6-day treatment the animals are killed with carbon dioxide.
For the whole mount staining, animals are shaved in the left abdominal inguinal mammary region, which is cut from the body together with the skin. For the histological/immunohistochemical analyses the right abdominal inguinal mammary gland is cut from the body together with the connective-tissue adhered thereto and fixed in 3.7% formalin in PBS (phosphate buffer saline; without Ca^2+/Mg^2+).
For a more detailed evaluation of the proliferation of the mammary epithelium, cells are stained with the proliferation marker MIB-5 as follows (cf. FIG. 2): Mammary glands are fixed in 4% formaldehyde/PBS for 24 h and embedded in paraffm. 4 μm sections are spread on slides, deparaffinized, treated with microwaves for 10 min. in citrate buffer pH 6.0 and rinsed with PBS. Slides are then blocked with 3% H2O2/methanol for 15 min., Blockingkit (Vektor, no. SP-2001) for 10 min. and rat serum (Sigma, no. S-7648) diluted 1:2 in PBS for 30 min to reduce nonspecific staining and rinsed in PBS. Slides are incubated for 1 hour with monoclonal antibody MIB-5 (Dianova, no. Dia-5055), which is specific for the rat Ki-67 antigen (1:200 diluted in PBS/0.2% BSA). […]
In order to characterize a test compound, the percentage of MIB-5 stained mammary epithelium cells is determined. […]

rabbit endometrium = experiment: Endometrial transformation in rabbit (Clauberg test, McPhail index); format: in vivo
Description: The test is performed in juvenile female rabbits (New Zealand white, 30 to 35 days old; obtained from Schriever, Germany). From days 1 to 4, all rabbits are primed with […] (s.c., 0.5 ml/kg/day) in order to induce proliferation of the endometrium. From days 7 to 10, the test compound is applied orally (p.o., 0.5 ml/kg/day) at doses of 0.001, 0.01 and 0.1 mg/kg/day. A group which receives only vehicle after estradiol priming serves as a negative control. A second group which receives only progesterone in order to induce endometrial differentiation after estradiol priming is used as a positive control. In order to study the progestagenic activity of ((+)-1), which is the most preferred compound according to the present invention, one treatment group-receives only the compound ((+)-1) after estradiol priming.
Autopsy is performed on […]. As a parameter for progestagenic activity, the McPhail index (i.e., the degree of differentiation) is determined by means of light microscopy (scores: 1 to 4; 1=no glandular differentiation, 4=maximal differentiation).

[2] = target: T1, estrogen receptor-α (ERα) (Homo sapiens, UniProt P03372); experiment: Binding to the estrogen receptor-α in vitro
T1 sequence (P03372 1-595): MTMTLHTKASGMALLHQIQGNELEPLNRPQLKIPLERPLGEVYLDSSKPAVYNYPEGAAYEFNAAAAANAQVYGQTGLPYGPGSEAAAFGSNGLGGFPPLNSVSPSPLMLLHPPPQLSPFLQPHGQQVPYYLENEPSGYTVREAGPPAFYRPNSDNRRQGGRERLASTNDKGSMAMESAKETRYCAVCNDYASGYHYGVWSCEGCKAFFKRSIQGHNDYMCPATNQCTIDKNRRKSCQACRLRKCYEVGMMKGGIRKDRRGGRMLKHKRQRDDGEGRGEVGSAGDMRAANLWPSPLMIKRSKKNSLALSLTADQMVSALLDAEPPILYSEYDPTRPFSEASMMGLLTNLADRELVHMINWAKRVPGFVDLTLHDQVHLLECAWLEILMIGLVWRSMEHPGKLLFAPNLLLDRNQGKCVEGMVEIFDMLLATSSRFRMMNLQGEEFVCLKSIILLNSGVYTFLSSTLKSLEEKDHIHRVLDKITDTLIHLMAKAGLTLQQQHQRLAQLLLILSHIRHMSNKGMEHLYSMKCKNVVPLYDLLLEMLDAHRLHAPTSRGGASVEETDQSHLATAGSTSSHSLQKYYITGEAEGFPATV

[3] = system: prostate weight and seminal vesicle of orchidectomized rats; experiment: Androgenic/anti-androgenic activity in vivo in orchidectomized rats (prostate weight, seminal vesicle); set-up: species or system rat
Source text: The absence of androgenic as well as anti-androgenic activity in vivo was confirmed by tests performed with orchidectomized rats (change in prostate weight and in the seminal vesicle).

thymus weight = experiment: Glucocorticoid/anti-glucocorticoid activity in vivo (changes in thymus weight)

O=C1OCc2cc(NC(=O)C(O)(CC3(c4cc(C(F)(F)F)ccc4F)CC3)C(F)(F)F)ccc21 (single isomer, unassigned; (+)) [((+)-1), (+)-5-{2-hydroxy-3-[1-(2-fluoro-5-trifluoromethylphenyl)-cyclopropyl]-2-trifluoromethyl-propionylamino}-phthalide]
inhibition at 0.01 mg/kg ([1]; Rattus norvegicus, dose 10 μg/kg, days 1 to 4, female rats): 0% | inhibition at 0.03 mg/kg ([1]; Rattus norvegicus, dose 30 μg/kg, days 1 to 4, female rats): 14% | inhibition at 0.1 mg/kg ([1]; Rattus norvegicus, dose 100 μg/kg, days 1 to 4, female rats): 100% | Ovulation inhibition, result in words [1]: at least as potent as the standard progestin | Ovulation inhibition, factor compared to R5020 ([1]; listed as ((+)-l)): 1 to 2 | Ovulation inhibition, factor compared to R5020 ([1]; listed as ((+)−1)): 1-2 | Ovulation inhibition, result in words ([1]; listed as ((+)-l)): efficiently inhibited ovulation | MIB-5 positive cells (rat mammary epithelium; 1 mg/kg/d): ~12% | MIB-5 positive cells, dose dependence in words (rat mammary epithelium; increasing concentrations): dose-dependent decrease of MIB-5 positive cells | Potency upon subcutaneous versus oral application, in words (rabbit endometrium; Clauberg test, rabbit): identical potency | Threshold Value (endometrial transformation) (rabbit endometrium; oral (p.o.)): 0.001 to 0.01 mg/kg | Affinity for the estrogen receptor-α (ERα) [2]: negligible affinity | Androgenic and anti-androgenic activity in vivo [3]: no androgenic as well as no anti-androgenic activity in vivo | Glucocorticoid and anti-glucocorticoid activity in vivo (thymus weight): does not seem to exhibit any glucocorticoid or any anti-glucocorticoid activity in vivo
